# Results published in patent publication US5585380A, “Modulation of cellular response to external stimuli” (priority 1995, dated 1996).
# Legend:
# Assay type in all cases: in vivo, human
# [1] = test system: patients undergoing allogeneic bone marrow transplant; test: Preliminary study in allogeneic bone marrow transplant patients; settings: first 30 days post-transplant; PTX/CIPRO N=10, GM-CSF N=27; all also PD and cyclosporin
# Procedure: A preliminary study was conducted on patients undergoing allogeneic bone marrow transplant for multiple myeloma, for lymphoid malignancies, or for advanced stage CML or AML. Prednisone is often administered as an immunosuppressant in all experimental groups. In the study, these patients received the drugs for a minimum of 3 days to a maximum of 7 days prior to starting their preparative regimen while in the outpatient department according to the following regimen:
# PTX: 600 mg p.o. qid at 9 am, 1 pm, 5 pm and 9 pm;
# CIPRO: 500 mg p.o.b.i.d.; and
# PD: 0.5 mg/kg b.i.d. (total 1 mg/kg/day changed to methylprednisolone at an equivalent dose starting on day -1).
# For the duration of therapy, the patients are continued on the study drugs as follows:
# PTX: until day +20 post-transplant then tapered 600 mg/day until off;
# CIPRO: until day 30 post-transplant or day of discharge if sooner than day 30; and
# PD: tapered starting on day 0 over 14 days until off.
# All patients in these studies received PD and cyclosporin as GVHD prophylaxis. Granulocyte recovery was measured post-bone marrow transplant in patients receiving therapy with PTX, CIPRO in addition to standard PD administration (N=10), or GM-CSF (N=10), or PTX (N=4).
# [2] = test system: recipients of matched allogeneic donor marrow; test: Matched allogeneic donor trial
# Text: (§1) They are given steroids to reduce inflammation. […] In this group of patients, GVHD approaches 90%.
# [3] = test system: recipients of marrow from unrelated donors; test: Unrelated donor trial
# Text: as §1
# [4] = day on which ANC ≥ 100 cells/uL on two consecutive days
# [5] = day on which ANC ≥ 1,000 cells/uL on two consecutive days
# [6] = first day RBC count ≥ 30% for 7 consecutive days untransfused
# [7] = first day platelet count ≥ 20,000/uL for 7 consecutive days untransfused
# [8] = initial discharge from the hospital
# [9] = maximum serum bilirubin days 0-28 post BMT
# [10] = maximum serum creatinine day 0-28 post BMT
substance,measurement,setting,value
GM-CSF: granulocyte-macrophage colony-stimulating factor,platelet transfusion requirement,[1],87±69 units
same,red blood cell requirement,[1],24.7±24 units
same,"ANC ≥ 100, mean ± standard deviation",[2]; [4],8 ± 6 days
same,"ANC ≥ 100, median",[2]; [4],9.0 days
same,"ANC ≥ 1,000, mean ± standard deviation",[2]; [5],16 ± 9 days
same,"ANC ≥ 1,000, median",[2]; [5],14.0 days
same,"Bili ≥ 5.0 mg/dL, patients",[2]; days 0-28 post BMT,44%
same,"Creat ≥ 2.0 mg/dL, patients",[2]; days 0-28 post BMT,22%
same,"ANC ≤ 100, mean ± standard deviation",[2]; days below 100 cells/uL,6 ± 4 days
same,"ANC ≤ 100, median","[2]; days below 100 cells/uL, GM-CSF 27, PTX/CIPRO 23 patients",5.0 days
same,"Last RBC day, mean ± standard deviation",[2]; [6],63 ± 39 days
same,"Last RBC day, median",[2]; [6],59.0 days
same,"Last plt day, mean ± standard deviation",[2]; [7],17 ± 11 days
same,"Last plt day, median",[2]; [7],23.0 days
same,"Day discharge, mean ± standard deviation",[2]; [8],26 ± 13 days
same,"Day discharge, median",[2]; [8],24.0 days
same,"Max Bili, mean ± standard deviation",[2]; [9],8 ± 10 mg/dL
same,"Max Bili, median",[2]; [9],5.0 mg/dL
same,"Max Creat, mean ± standard deviation",[2]; [10],1.8 ± 1.4 mg/dL
same,"Max Creat, median",[2]; [10],1.5 mg/dL
same,Day 100 Survival,[2]; patients alive 100 days post transplant,69%
same,Infection 0-28,[2]; patients with positive bacterial blood cultures days 0-28 post BMT,14%
same,"Units platelets, mean ± standard deviation",[2]; platelets transfused day 0-28,87 ± 74 units
same,"Units platelets, median",[2]; platelets transfused day 0-28,74.0 units
same,"ANC ≤ 100, mean ± standard deviation",[3],12 ± 7 days
same,"ANC ≥ 100, mean ± standard deviation",[3],18 ± 6 days
same,"ANC ≥ 100, median",[3],18.5 days
same,"ANC ≥ 500, mean ± standard deviation",[3],23 ± 4 days
same,"ANC ≥ 500, median",[3],22.5 days
same,"ANC ≥ 1,000, mean ± standard deviation",[3],26 ± 5 days
same,"ANC ≥ 1,000, median",[3],26.0 days
same,"Bili ≥ 5.0 mg/dL, patients",[3],46%
same,Day 100 Survival,[3],86%
same,"Day initial discharge, mean ± standard deviation",[3],37 ± 14 days
same,"Day initial discharge, median",[3],37.0 days
same,GVHD Grade 0,[3],15%
same,GVHD Grade I,[3],8%
same,GVHD Grade II,[3],46%
same,GVHD Grade III,[3],27%
same,GVHD Grade IV,[3],4%
same,Infection 0-28,[3],7%
same,"Last plt day, mean ± standard deviation",[3],26 ± 6 days
same,"Last plt day, median",[3],24.5 days
same,"Max Bili, mean ± standard deviation",[3],7 ± 7 mg/dL
same,"Max Bili, median",[3],5.5 mg/dL
same,"Max Creat, mean ± standard deviation",[3],1.4 ± 1.2 mg/dL
same,"Max Creat, median",[3],1.1 mg/dL
same,"Units platelets, mean ± standard deviation",[3],90 ± 42 units
same,"Units platelets, median",[3],92.0 units
same,"ANC ≤ 100, median","[3]; GM-CSF 30, PTX/CIPRO 17 patients",12 days
